Experimental findings from patent publication US11306081B2, “Phenylacetamides as inhibitors of rock” (BRISTOL-MYERS SQUIBB COMPANY, priority 2017, dated 2022) are described below.

Chain of ROCK2 (O75116 whole entry, species assumed): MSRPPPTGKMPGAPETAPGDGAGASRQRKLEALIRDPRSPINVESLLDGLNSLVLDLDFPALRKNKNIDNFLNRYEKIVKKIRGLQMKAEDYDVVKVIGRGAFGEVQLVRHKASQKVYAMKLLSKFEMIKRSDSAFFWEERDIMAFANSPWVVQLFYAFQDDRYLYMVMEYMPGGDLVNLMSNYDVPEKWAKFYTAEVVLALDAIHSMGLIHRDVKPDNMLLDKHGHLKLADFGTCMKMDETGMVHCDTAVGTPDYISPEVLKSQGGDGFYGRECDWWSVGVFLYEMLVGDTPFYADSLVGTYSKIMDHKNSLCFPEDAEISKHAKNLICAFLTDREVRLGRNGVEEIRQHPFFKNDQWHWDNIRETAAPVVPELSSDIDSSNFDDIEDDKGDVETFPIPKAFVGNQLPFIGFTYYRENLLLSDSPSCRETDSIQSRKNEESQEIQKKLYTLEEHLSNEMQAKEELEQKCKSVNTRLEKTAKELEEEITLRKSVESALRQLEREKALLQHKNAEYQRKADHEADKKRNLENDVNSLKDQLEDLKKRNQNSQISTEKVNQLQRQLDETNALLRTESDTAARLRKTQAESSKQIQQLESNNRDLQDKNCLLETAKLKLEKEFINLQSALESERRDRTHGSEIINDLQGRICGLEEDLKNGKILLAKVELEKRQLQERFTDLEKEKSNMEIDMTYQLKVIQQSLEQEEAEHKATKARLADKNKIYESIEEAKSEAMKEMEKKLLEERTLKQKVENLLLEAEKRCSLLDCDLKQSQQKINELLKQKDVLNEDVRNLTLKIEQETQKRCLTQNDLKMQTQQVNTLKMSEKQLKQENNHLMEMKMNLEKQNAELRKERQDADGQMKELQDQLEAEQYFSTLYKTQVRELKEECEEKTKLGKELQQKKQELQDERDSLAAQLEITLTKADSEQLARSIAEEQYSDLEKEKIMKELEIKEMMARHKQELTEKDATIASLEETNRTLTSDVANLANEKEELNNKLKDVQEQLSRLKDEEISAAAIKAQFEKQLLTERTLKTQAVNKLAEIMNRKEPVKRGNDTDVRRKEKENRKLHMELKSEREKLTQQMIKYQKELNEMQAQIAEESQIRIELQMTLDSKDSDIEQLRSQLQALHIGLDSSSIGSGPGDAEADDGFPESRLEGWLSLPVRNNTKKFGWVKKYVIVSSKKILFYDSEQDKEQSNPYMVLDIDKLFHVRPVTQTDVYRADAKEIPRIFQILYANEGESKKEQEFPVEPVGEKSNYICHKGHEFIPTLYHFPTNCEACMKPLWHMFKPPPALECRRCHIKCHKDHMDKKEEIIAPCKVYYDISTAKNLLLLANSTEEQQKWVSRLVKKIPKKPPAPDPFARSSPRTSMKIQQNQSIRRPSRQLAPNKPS

The target of the assay is ROCK2 (Homo sapiens (Human), UniProt O75116). Kind of assay: ROCK assay (LABCHIP 3000 peptide phosphorylation assay). The assay is classed as biochemical. To be noted: 5 μM ATP, 1.5 μM peptide substrate, dose-response. The method in brief:
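Rho kinase variants in 20 mM HEPES pH 7.5, 20 mM MgCl2, 0.015% Brij-35, 4 mM DTT, 5 μM ATP, 1.5 μM FITC-AHA-AKRRRLSSLRA-OH peptide; DMSO <2%. EDTA-stopped; phosphorylated/non-phosphorylated peptide separated by microfluidic LabChip readout. Dose-response inhibition curve-fitted to give IC50.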
Take `NC(=O)c1cccnc1Oc1ccc(CC(=O)Nc2nc3cc(C(=O)c4ccccc4)ccc3[nH]2)cc1` [Example 072, 2-(4-(2-((5-benzoyl-1H-benzo[d]imidazol-2-yl)amino)-2-oxoethyl)phenoxy) nicotinamide]: half-maximal inhibition (IC50) was put at 147 nM.

Turning to `NC(=O)c1cccnc1Oc1ccc(CC(=O)Nc2nc3cccc(Cl)c3[nH]2)cc1` [Example 073, 2-(4-(2-((7-chloro-1H-benzo[d]imidazol-2-yl)amino)-2-oxoethyl)phenoxy) nicotinamide], half-maximal inhibition (IC50) was put at 244 nM.

Regarding `COC(=O)c1ccc2c(c1)nc(NC(=O)Cc1ccc(Oc3ncccc3C(N)=O)cc1)n2C` [Example 074, methyl 2-(2-(4-((3-carbamoylpyridin-2-yl)oxy)phenyl)acet-amido)-1-methyl-1H-benzo[d]imidazole-5-carboxylate], the midpoint of inhibition, the IC50, lay at 1100 nM. This IC50 lies about 4.5-fold higher than the previous one.

Molecule `Cn1nc(NC(=O)Cc2ccc(Oc3ncccc3C(N)=O)cc2)c2ccccc21` [Example 075, 2-(4-(2-((1-methyl-1H-indazol-3-yl)amino)-2-oxoethyl)phenoxy) nicotinamide] registered an IC50 of 534 nM. Compared with the last molecule, the IC50 is about 2.1-fold lower.

Molecule `CS(=O)(=O)c1ccc2nc(NC(=O)Cc3ccc(Oc4ncccc4C(N)=O)cc3)sc2c1` [Example 076, 2-(4-(2-((6-(methylsulfonyl)benzo[d]thiazol-2-yl)amino)-2-oxoethyl)phenoxy) nicotinamide] gave an IC50 of 332 nM.

`Cc1cccc(Nc2ncnc3ccc(NC(=O)Cc4ccc(Oc5ncccc5C(N)=O)cc4)cc23)c1` [Example 077, 2-(4-(2-oxo-2-((4-(m-tolylamino)quinaz-olin-6-yl)amino)ethyl)phe-noxy)nicotinamide] registered an IC50 of 42 nM.

With `Cc1sc(NC(=O)Cc2ccc(Oc3ncccc3C(N)=O)cc2)nc1-c1ccc(F)cc1` [Example 078, 2-(4-(2-((4-(4-fluorophenyl)-5-methylthiazol-2-yl)amino)-2-oxoethyl)phenoxy) nicotinamide], the IC50 came out at 96 nM.

Consider `NC(=O)c1cccnc1Oc1ccc(CC(=O)Nc2nc3ccccc3n2Cc2ccccc2)cc1Cl` [Example 079, 2-(4-(2-((1-benzyl-1H-benzo[d]imidazol-2-yl)amino)-2-oxoethyl)-2-chlorophenoxy)nico-tinamide], for which inhibition was half-maximal at 181 nM (IC50).

On to `Cc1sc(NC(=O)Cc2ccc(Oc3ncccc3C(N)=O)c(Cl)c2)nc1-c1ccccc1F` [Example 080, 2-(2-chloro-4-(2-((4-(2-fluorophenyl)-5-methylthiazol-2-yl)amino)-2-oxoethyl)phenoxy) nicotinamide], for which inhibition was half-maximal at 15 nM (IC50).

For `Cc1nc2sccn2c1-c1csc(NC(=O)Cc2ccc(Oc3ncccc3C(N)=O)c(Cl)c2)n1` [Example 081, 2-(2-chloro-4-(2-((4-(6-methylimidazo[2,1-b]thiazol-5-yl)thiazol-2-yl)amino)-2-oxoethyl)phenoxy) nicotinamide], the IC50 came to 59 nM.

Turning to `COc1cccn2nc(NC(=O)Cc3ccc(Oc4ncccc4C(N)=O)c(Cl)c3)nc12` [Example 082, 2-(2-chloro-4-(2-((8-methoxy-[1,2,4]triazolo[1,5-a]pyridin-2-yl)amino)-2-oxoethyl)phenoxy) nicotinamide], the IC50 is 6 nM.

The molecule `COc1cccn2nc(NC(=O)Cc3ccc(Oc4ncccc4C(N)=O)cc3)nc12` [Example 083, 2-(4-(2-((8-methoxy-[1,2,4]triazolo[1,5-a]pyridin-2-yl)amino)-2-oxoethyl)phenoxy) nicotinamide] had an IC50 of 106 nM.

The molecule `CN1CCc2sc(NC(=O)Cc3ccc(Oc4ncccc4C(N)=O)c(F)c3)nc2C1` [Example 084, 2-(2-fluoro-4-(2-((5-methyl-4,5,6,7-tetrahydrothiazolo [4,5-c]pyridin-2-yl)amino)-2-oxoethyl)phenoxy) nicotinamide] had an IC50 of 947 nM.

The molecule `Cc1sc(NC(=O)Cc2ccc(Oc3ncccc3C(N)=O)c(F)c2)nc1-c1ccc(F)nc1` [Example 085, 2-(2-fluoro-4-(2-((4-(6-fluoropyridin-3-yl)-5-methylthiazol-2-yl)amino)-2-oxoethyl)phenoxy) nicotinamide] showed a half-inhibitory concentration (IC50) of 176 nM.

In turn, `Cc1sc(NC(=O)Cc2ccc(Oc3ncccc3C(N)=O)c(F)c2)nc1-c1ccnn1C` [Example 086, 2-(2-fluoro-4-(2-((5-methyl-4-(1-methyl-1H-pyrazol-5-yl)thiazol-2-yl)amino)-2-oxoethyl)phenoxy) nicotinamide] had a half-inhibitory concentration (IC50) of 137 nM.

With `Cc1sc(NC(=O)Cc2ccc(Oc3ncccc3C(N)=O)c(F)c2)nc1-c1ccccn1` [Example 087, 2-(2-fluoro-4-(2-((5-methyl-4-(pyridin-2-yl)thiazol-2-yl)amino)-2-oxoethyl)phenoxy) nicotinamide], the midpoint of inhibition, the IC50, lay at 47 nM. This IC50 lies about 2.9-fold lower than the previous one.

Molecule `Cc1cnc(NC(=O)Cc2ccc(Oc3ncccc3C(N)=O)c(F)c2)s1` [Example 088, 2-(2-fluoro-4-(2-((5-methylthiazol-2-yl)amino)-2-oxoethyl)phenoxy) nicotinamide] gave a concentration for half-maximal inhibition (IC50) of 126 nM.

Regarding `Cc1nccc(-c2nc(NC(=O)Cc3ccc(Oc4ncccc4C(N)=O)c(F)c3)sc2C)n1` [Example 089, 2-(2-fluoro-4-(2-((5-methyl-4-(2-methylpyrimidin-4-yl)thiazol-2-yl)amino)-2-oxoethyl)phenoxy) nicotinamide], half-maximal inhibition (IC50) required 14 nM. Compared with the last molecule, the IC50 is about 9-fold lower.

`NC(=O)c1cccnc1Oc1ccc(CC(=O)Nc2nnc(-c3cccnc3)s2)cc1F` [Example 090, 2-(2-fluoro-4-(2-oxo-2-((5-(pyridin-3-yl)-1,3,4-thiadiazol-2-yl)amino)ethyl)phe-noxy)nicotinamide] showed a 50% inhibitory concentration (IC50) of 419 nM.

For the molecule `NC(=O)c1cccnc1Oc1ccc(CC(=O)Nc2nnc(C(F)(F)F)s2)cc1F` [Example 091, 2-(2-fluoro-4-(2-oxo-2-((5-(trifluoromethyl)-1,3,4-thiadiazol-2-yl)amino)ethyl)phe-noxy)nicotinamide], the 50% inhibitory concentration (IC50) is 874 nM.

The molecule `NC(=O)c1cccnc1Oc1ccc(CC(=O)Nc2nnc(C3CC3)s2)cc1F` [Example 092, 2-(4-(2-((5-cyclopropyl-1,3,4-thiadiazol-2-yl)amino)-2-oxoethyl)-2-fluorophenoxy)nico-tinamide] had an IC50 of 361 nM.

`COc1ccc(Cc2nnc(NC(=O)Cc3ccc(Oc4ncccc4C(N)=O)c(F)c3)s2)cc1OC` [Example 093, 2-(4-(2-((5-(3,4-dimethoxybenzyl)-1,3,4-thiadiazol-2-yl)amino)-2-oxoethyl)-2-fluorophenoxy)nico-tinamide]: the IC50 is 213 nM. Against the preceding molecule, the IC50 is about 1.7-fold lower.

With `COc1cccn2nc(NC(=O)Cc3ccc(Oc4ncccc4C(N)=O)c(F)c3)nc12` [Example 094, 2-(2-fluoro-4-(2-((8-methoxy-[1,2,4]triazolo[1,5-a]pyridin-2-yl)amino)-2-oxoethyl)phenoxy) nicotinamide], the IC50 was 15 nM.

Take `CN1CCC(Oc2ccc(NC(=O)Cc3ccc(Oc4ncccc4C(N)=O)c(Cl)c3)cc2)CC1` [Example 095, 2-(2-chloro-4-(2-((4-((1-methylpiperidin-4-yl)oxy)phenyl)ami-no)-2-oxoethyl)phenoxy) nicotinamide]: the IC50 stood at 113 nM.

In the case of `Cc1cccc2nc(NC(=O)Cc3ccc(Oc4ncccc4C(N)=O)c(F)c3)nn12` [Example 096, 2-(2-fluoro-4-(2-((5-methyl-[1,2,4]triazolo[1,5-a]pyridin-2-yl)amino)-2-oxoethyl)phenoxy) nicotinamide], the half-inhibitory concentration (IC50) came to 110 nM.

`NC(=O)c1cccnc1Oc1ccc(CC(=O)Nc2nnc(-c3ccncc3)s2)cc1F` [Example 097, 2-(2-fluoro-4-(2-oxo-2-((5-(pyridin-4-yl)-1,3,4-thiadiazol-2-yl)amino)ethyl)phe-noxy)nicotinamide] came in with an IC50 of 336 nM.

`Cc1nc(NC(=O)Cc2ccc(Oc3ncccc3C(N)=O)c(F)c2)sc1C` [Example 098, 2-(4-(2-((4,5-dimethylthiazol-2-yl)amino)-2-oxoethyl)-2-fluorophenoxy)nico-tinamide] had an IC50 of 31 nM.

In turn, `NC(=O)c1cccnc1Oc1ccc(CC(=O)Nc2ccn(CC(F)(F)F)n2)cc1F` [Example 099, 2-(2-fluoro-4-(2-oxo-2-((1-(2,2,2-trifluoroethyl)-1H-pyrazol-3-yl)amino)ethyl)phe-noxy)nicotinamide] registered an IC50 of 583 nM.

`NC(=O)c1cccnc1Oc1ccc(CC(=O)Nc2ccn(-c3ccc(C(F)(F)F)cn3)n2)cc1F` [Example 100, 2-(2-fluoro-4-(2-oxo-2-((1-(5-(trifluoromethyl)pyridin-2-yl)-1H-pyrazol-3-yl)amino)ethyl)phe-noxy)nicotinamide]: the concentration for half-maximal inhibition (IC50) was determined as 191 nM.

For the molecule `NC(=O)c1cccnc1Oc1ccc(CC(=O)Nc2nc(C3CC3)ns2)cc1F` [Example 101, 2-(4-(2-((3-cyclopropyl-1,2,4-thiadiazol-5-yl)amino)-2-oxoethyl)-2-fluorophenoxy)nico-tinamide], the IC50 came out at 261 nM.

In turn, `Cc1sc(NC(=O)Cc2ccc(Oc3ncccc3C(N)=O)c(Cl)c2)nc1-c1cccnc1F` [Example 102, 2-(2-chloro-4-(2-((4-(2-fluoropyridin-3-yl)-5-methylthiazol-2-yl)amino)-2-oxoethyl)phenoxy) nicotinamide] displayed a concentration for half-maximal inhibition (IC50) of 12 nM.

For `Cc1sc(NC(=O)Cc2ccc(Oc3ncccc3C(N)=O)c(Cl)c2)nc1-c1ccc(F)nc1` [Example 103, 2-(2-chloro-4-(2-((4-(6-fluoropyridin-3-yl)-5-methylthiazol-2-yl)amino)-2-oxoethyl)phenoxy) nicotinamide], it took 17 nM to reach half-maximal inhibition (IC50).

`Cc1sc(NC(=O)Cc2ccc(Oc3ncccc3C(N)=O)c(Cl)c2)nc1-c1cnn(C)c1` [Example 104, 2-(2-chloro-4-(2-((5-methyl-4-(1-methyl-1H-pyrazol-4-yl)thiazol-2-yl)amino)-2-oxoethyl)phenoxy) nicotinamide]: inhibition was half-maximal at 7 nM (IC50). This IC50 is about 2.4-fold lower than that of the molecule before.

For `Cc1sc(NC(=O)Cc2ccc(Oc3ncccc3C(N)=O)c(Cl)c2)nc1-c1ccc(Cl)nc1` [Example 105, 2-(2-chloro-4-(2-((4-(6-chloropyridin-3-yl)-5-methylthiazol-2-yl)amino)-2-oxoethyl)phenoxy) nicotinamide], the 50% inhibitory concentration (IC50) was 15 nM. This IC50 is about 2.1-fold higher than that of the molecule before.
